Experimental data published in patent US4868162A, “Antiviral agent” (Teijin Limited, priority 1985, dated 1989).
Values after ≈ are worked out from the molar mass of the structure shown.

Assays:
[1] = tested on: herpes simplex type I virus (KOS strain); assay: Plaque reduction in herpes simplex type I infected Vero cells (Example 3, 2,000 pfu/ml); type: cell-based; conditions: for Therapeutic index MTD/ED50: HSV-1 KOS 2,000 pfu/ml, 2880 min; for EC50: Human alphaherpesvirus 1, HSV-1 KOS 2,000 pfu/ml, 48-hour culture, read-out: ED50 (effective dose which suppressed the formation of plaques by 50% in number)
Experimental: (§1) Vero cells. were cultured in Eagle essential medium (MEM) containing 5% fetal calf serum (FCS) and were made to proliferate after the monolayer cell culture method. The cells were inoculated with 0.1 ml of herpes simplex type I virus (KOS strain) of 2,000 pfu/ml concentration, which were made to be adsorbed by the host cells at 37° C. for 1 hour. The virus that were not yet adsorbed were washed away with a 2% CS-MEM medium and then test compounds, inclusive of the compounds of this invention, were added to the cultures respectively in concentration of 0.01~1,000 μg/ml.
(§2) After 48-hour culture in 2% CS-MEM medium was over, the effective dose of each test compound which suppressed the formation of plaques by 50% in number (ED50) and the minimum toxic dose (MTD) which caused the cytotoxicity were measured.

in vitro [2] = type: cell-based, African green monkey; conditions: monkey, vero cells
Experimental: as §1, §2

[3] = tested on: herpes simplex type I virus (KOS strain); assay: Plaque reduction in herpes simplex type I infected Vero cells (Example 2, 10,000 pfu/ml); type: cell-based; conditions: HSV-1 KOS 10,000 pfu/ml; for EC50: Human alphaherpesvirus 1, 48-hour culture, read-out: ED50 (effective dose which suppressed the formation of plaques by 50% in number); for EC50 / Therapeutic index MTD/ED50: Vero cells; for Therapeutic index MTD/ED50: 2880 min
Experimental: Vero cells were cultured in Eagle minimum
1 medium (MEM) containing 5% calf serum (CS) and were made to proliferate after the monolayer cell culture method. The cultured cells were inoculated with 0.1 ml of herpes simplex type I virus (KOS strain) of 10,000 pfu/ml concentration, which were left to be adsorbed by the host cells at 37° C. for 1 hour. The test compounds, inclusive of the compounds of this invention, were added to the cultures respectively in concentration of 0.001~1,000 μg/ml.
(§3) After 48-hour culture in 2% CS-MEM medium was over, the effective dose of each test compound which suppressed the formation of plaques by 50% in number (EDs) and the minimum toxic dose (MTD) which caused the cytotoxicity were measured.

in vitro [4] = type: cell-based, African green monkey; conditions: monkey, vero cells; remark: listed apart in the source
Experimental: as §3, with “Vero cells were cultured in Eagle minimum 1 medium (MEM) containing 5% calf serum (CS) and were made to proliferate after the monolayer cell culture method. […] After” for “After”

[5] = tested on: herpes simplex type I virus (KOS strain); assay: Plaque reduction in herpes simplex type I infected Vero cells (Example 1, 1,000 pfu/ml); type: cell-based; conditions: for Therapeutic index MTD/ED50: HSV-1 KOS 1,000 pfu/ml, 2880 min; for EC50: Human alphaherpesvirus 1, HSV-1 KOS 1,000 pfu/ml, 48-hour culture, read-out: ED50 (effective dose which suppressed the formation of plaques by 50% in number)
Experimental: (§4) Vero cells were cultured in Eagle minimum essential medium (MEM) containing 5% calf serum (CS) and were made to proliferate by means of monolayer cell culture. The cells were inoculated with 0.1 ml of herpes simplex type I virus (KOS strain) adjusted to 1,000 pfu/ml, which were allowed to hold on the host cells by adsorption for 1 hour at 37° C. Thereafter, the test compound, inclusive of the compounds of this invention, were added thereto respectively in concentration of 0.01~1,000 μg/ml.
(§5) After 48-hour culture in CS-MEM medium was over, the effective dose of each test compound which suppressed the formation of plaques by 50% in number (ED50) and the minimum toxic dose (MTD) which caused the cytotoxicity were measured.

[6] = Cytotoxicity, minimum toxic dose in Vero cells (Example 1); type: cell-based, African green monkey; conditions: monkey
Experimental: as §4, §5

Compound	EC50 [1]	MCC at 48 h (in vitro [2])	EC50 [3]	MCC at 48 h (in vitro [4])	EC50 [5]	Therapeutic index MTD/ED50 [1]	Therapeutic index MTD/ED50 [3]	Therapeutic index MTD/ED50 [5]	MCC at 48 h ([6]; vero cells)	further results
O=C(OC[C@H]1O[C@@H](n2cc(F)c(=O)[nH]c2=O)C[C@@H]1OC(=O)c1ccccc1)c1ccccc1 [3',5'-dibenzoyl-5-fluoro-2'-deoxyuridine]	0.112 µg/mL (≈ 0.246 µM)	100 µg/mL	–	–	–	893	–	–	–	–
CCCCCCCCCC(=O)OC[C@H]1O[C@@H](n2cc(F)c(=O)[nH]c2=O)C[C@@H]1OC(=O)CCCCCCCCC [3',5'-didecanoyl-5-fluoro-2'deoxyuridine, 3',5'-didecanoyl-5-fluoro-2'-deoxyuridine]	–	–	0.038 µg/mL (≈ 0.0685 µM)	100 µg/mL	–	–	2,600	–	–	–
CCCCCCCCCCCC(=O)OC[C@H]1O[C@@H](n2cc(F)c(=O)[nH]c2=O)C[C@@H]1OC(=O)CCCCCCCCCCC [3',5'-didodecanoyl-5-fluoro-2'-deoxyuridine]	–	–	–	–	0.054 µg/mL (≈ 0.0884 µM)	–	–	1,900	100 µg/mL	–
CCCCCCCCCCCCCCCC(=O)OC[C@H]1O[C@@H](n2cc(F)c(=O)[nH]c2=O)C[C@@H]1OC(=O)CCCCCCCCCCCCCCC [3',5'-dihexadecanoyl-5-fluoro-2'-deoxyuridine]	–	–	–	–	0.077 µg/mL (≈ 0.106 µM)	–	–	2,000	150 µg/mL	–
CCCCCCCC(=O)OC[C@H]1O[C@@H](n2cc(F)c(=O)[nH]c2=O)C[C@@H]1OC(=O)CCCCCCC [3',5'-dioctanoyl-5-fluoro-2'-deoxyuridine]	–	–	0.018 µg/mL (≈ 0.0361 µM)	100 µg/mL	–	–	5,600	–	–	effective dose relative to that of Acyclovir for the same effect ([3]; fraction of Acyclovir effective dose): about 1/400
O=c1[nH]c(=O)n([C@H]2C[C@H](O)[C@@H](CO)O2)cc1F [5-fluoro-2'-deoxyuridine, reference compound]	–	–	–	–	0.01 µg/mL (≈ 0.0406 µM)	–	–	10	–	MCC at 48 h ([6]; Vero cells, Example 1, 48-hour culture, read-out: MTD (minimum toxic dose which caused the cytotoxicity)): 0.1 µg/mL

Now from value to molecule, other results behind:

EC50 [1]	MCC at 48 h (in vitro [2])	EC50 [3]	MCC at 48 h (in vitro [4])	EC50 [5]	Compound	Therapeutic index MTD/ED50 [1]	Therapeutic index MTD/ED50 [3]	Therapeutic index MTD/ED50 [5]	MCC at 48 h ([6]; vero cells)	further results
0.285 µg/mL (≈ 0.47 µM)	10 µg/mL	–	–	–	CCCCCCCC(=O)OC[C@H]1O[C@@H](n2cc(I)c(=O)[nH]c2=O)C[C@@H]1OC(=O)CCCCCCC [3',5'-dioctanoyl-5-iodo-2'-deoxyuridine]	35	–	–	–	–
–	–	–	–	0.049 µg/mL (≈ 0.0735 µM)	CCCCCCCCCCCCCC(=O)OC[C@H]1O[C@@H](n2cc(F)c(=O)[nH]c2=O)C[C@@H]1OC(=O)CCCCCCCCCCCCC [3',5'-ditetradecanoyl-5-fluoro-2'-deoxyuridine]	–	–	2,000	100 µg/mL	–
3.36 µg/mL (≈ 14.9 µM)	1000 µg/mL	7.26 µg/mL (≈ 32.2 µM)	1000 µg/mL	0.991 µg/mL (≈ 4.4 µM)	Nc1nc2c(ncn2COCCO)c(=O)[nH]1 [9-(2-hydroxyethoxymethyl)guanine, reference compound]	279	140	1,000	1000 µg/mL	–
